From patent publication US10752616B2, “Bicycloheteroaryl-heteroaryl-benzoic acid compounds as retinoic acid receptor beta (RARβ) agonists” (King's College London, priority 2014, dated 2020)
pEC50: −log10 of the molar value. Entries after “also recorded” stand apart in the source; their conditions may differ.

Legend:
RARγ [1] = target: T1, RARγ (Homo sapiens (Human), UniProt P13631); assay: Subtype-specific transactivation from Yoshimura et al., 2000, RARγ; assay type: cell-based; conditions: ratio of relative EC30 (transactivation), Table 6
T1 sequence (P13631 whole entry, species assumed): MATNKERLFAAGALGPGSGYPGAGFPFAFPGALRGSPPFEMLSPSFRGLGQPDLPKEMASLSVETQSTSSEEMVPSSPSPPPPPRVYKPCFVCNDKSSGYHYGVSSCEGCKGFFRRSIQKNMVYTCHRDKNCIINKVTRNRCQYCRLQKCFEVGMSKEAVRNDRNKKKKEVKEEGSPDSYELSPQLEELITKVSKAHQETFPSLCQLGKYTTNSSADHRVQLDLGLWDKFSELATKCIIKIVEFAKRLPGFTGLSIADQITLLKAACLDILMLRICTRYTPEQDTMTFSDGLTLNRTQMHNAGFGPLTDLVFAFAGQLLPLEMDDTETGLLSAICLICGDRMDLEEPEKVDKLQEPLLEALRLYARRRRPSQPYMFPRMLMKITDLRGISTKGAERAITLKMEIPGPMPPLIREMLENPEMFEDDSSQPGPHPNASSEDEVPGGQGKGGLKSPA

RARβ [2] = target: RARβ (Homo sapiens (Human), UniProt P10826); conditions: transactivation, relative to atRA = 1; cited from earlier work
Sequence of RARβ (Homo sapiens (Human), UniProt P10826) (P10826 whole entry, species assumed): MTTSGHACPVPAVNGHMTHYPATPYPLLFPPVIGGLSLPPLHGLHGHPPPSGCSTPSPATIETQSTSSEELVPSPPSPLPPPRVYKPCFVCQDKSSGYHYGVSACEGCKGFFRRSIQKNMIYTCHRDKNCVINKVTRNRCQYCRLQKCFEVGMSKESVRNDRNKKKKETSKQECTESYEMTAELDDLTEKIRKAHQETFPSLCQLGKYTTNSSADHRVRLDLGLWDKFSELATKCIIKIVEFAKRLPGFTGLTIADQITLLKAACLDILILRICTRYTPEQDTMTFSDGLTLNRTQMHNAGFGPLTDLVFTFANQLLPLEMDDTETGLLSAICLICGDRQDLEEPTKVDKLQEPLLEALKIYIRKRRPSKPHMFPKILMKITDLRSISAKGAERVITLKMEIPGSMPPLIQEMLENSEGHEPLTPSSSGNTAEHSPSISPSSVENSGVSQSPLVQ

RARα [3] = target: T2, RARα (Homo sapiens (Human), UniProt P10276); assay: Binding affinity from Yoshimura et al., 2000, RARα; conditions: ratio of relative IC50 (binding), Table 5
T2 sequence (P10276 whole entry, species assumed): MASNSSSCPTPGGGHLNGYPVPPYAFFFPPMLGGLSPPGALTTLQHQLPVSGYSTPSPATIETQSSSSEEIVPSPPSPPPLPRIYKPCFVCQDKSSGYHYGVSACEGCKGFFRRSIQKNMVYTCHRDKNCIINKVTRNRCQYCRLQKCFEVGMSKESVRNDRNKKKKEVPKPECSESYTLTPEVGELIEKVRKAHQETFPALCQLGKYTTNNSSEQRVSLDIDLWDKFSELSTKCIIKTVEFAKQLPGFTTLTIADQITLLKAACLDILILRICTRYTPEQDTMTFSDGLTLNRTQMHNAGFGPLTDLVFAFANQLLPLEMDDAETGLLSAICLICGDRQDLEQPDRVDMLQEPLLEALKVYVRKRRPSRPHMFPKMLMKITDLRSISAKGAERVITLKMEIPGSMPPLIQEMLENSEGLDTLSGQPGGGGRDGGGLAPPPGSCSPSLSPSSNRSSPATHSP

RARα [4] = target: T2, RARα; conditions: transactivation, relative to atRA = 1; cited from earlier work
RARα [5] = target: T2, RARα; assay: Subtype-specific transactivation from Yoshimura et al., 2000, RARα; assay type: cell-based; conditions: ratio of relative EC30 (transactivation), Table 6
RARγ [6] = target: T1, RARγ; conditions: transactivation, relative to atRA = 1; cited from earlier work
RARα [7] = target: RARα (Mus musculus (Mouse), UniProt P11416); assay: Transactivation assay for RARα (gal4-RAR fusion, pFR-luc reporter, COS-7 cells), Table 2; assay type: cell-based; conditions: for pEC50: Table 2, COS-7 reporter, mean of three or more determinations, inactive = no agonist action at highest concentration tested; for RARα/RARβ ratio: fold-selectivity for RARβ over RARα, >1 = selective for RARβ
Sequence of RARα (Mus musculus (Mouse), UniProt P11416) (P11416 183-417): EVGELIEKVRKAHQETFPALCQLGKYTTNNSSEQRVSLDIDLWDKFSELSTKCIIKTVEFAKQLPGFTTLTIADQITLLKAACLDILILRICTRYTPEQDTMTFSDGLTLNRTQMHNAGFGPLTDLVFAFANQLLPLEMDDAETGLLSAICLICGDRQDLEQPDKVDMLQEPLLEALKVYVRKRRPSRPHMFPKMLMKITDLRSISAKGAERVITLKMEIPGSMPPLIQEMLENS
Experimental: (§1) Transcriptional transactivation assays were performed with gal4 fusion receptor constructs, created using each of the RAR ligand binding domains of either mouse or human, co-transfected with the pFR-luc (Stratagene) reporter construct in COS-7 cells.
(§2) Briefly, on day 1, 96 well plates were seeded with 8000 cells per well then left to recover overnight. On day 2, the cells were co-transfected with 100 ng of reporter plasmid and 10 ng of the appropriate receptor plasmid per well using lipofectamine (Invitrogen). On day 3, the lipofectamine containing media was replaced by a DMEM without phenol red, followed by the addition of test compound dissolved in 1 μL of DMSO to each well's 100 μL total volume. Finally, on day 4, the cells were lysed and their luciferase substrate was provided by the BrightGlo™ reagent (Promega), the plates were then read on the MicroBeta TriLux™ (Perkin Elmer).
(§3) Data for test compounds are quoted as EC50 values. Where replicate data has been generated, the data are quoted as the mean EC50 from the separate experiments.
(§4) EC50's values are reported as mean values of three or more determinations.

RARγ [8] = target: RARγ (Mus musculus (Mouse), UniProt P18911); assay: Transactivation assay for RARγ (gal4-RAR fusion, pFR-luc reporter, COS-7 cells), Table 2; assay type: cell-based; conditions: for pEC50: Table 2, COS-7 reporter, mean of three or more determinations, inactive = no agonist action at highest concentration tested; for RARγ/RARβ ratio: fold-selectivity for RARβ over RARγ, >1 = selective for RARβ
Sequence of RARγ (Mus musculus (Mouse), UniProt P18911) (P18911 185-419): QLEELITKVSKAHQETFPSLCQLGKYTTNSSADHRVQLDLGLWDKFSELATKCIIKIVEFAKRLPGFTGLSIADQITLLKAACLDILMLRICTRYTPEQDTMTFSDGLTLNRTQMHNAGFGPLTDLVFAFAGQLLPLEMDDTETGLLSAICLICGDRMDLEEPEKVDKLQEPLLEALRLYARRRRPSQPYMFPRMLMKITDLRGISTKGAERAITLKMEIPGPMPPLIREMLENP
Experimental: as §1, §2, §3, §4

RARβ [9] = target: RARβ (Mus musculus (Mouse), UniProt P22605); assay: Transactivation assay for RARβ (gal4-RAR fusion, pFR-luc reporter, COS-7 cells), Table 2; assay type: cell-based; conditions: COS-7 reporter, mean of three or more determinations, species not stated (method: mouse or human)
Sequence of RARβ (Mus musculus (Mouse), UniProt P22605) (P22605 210-444): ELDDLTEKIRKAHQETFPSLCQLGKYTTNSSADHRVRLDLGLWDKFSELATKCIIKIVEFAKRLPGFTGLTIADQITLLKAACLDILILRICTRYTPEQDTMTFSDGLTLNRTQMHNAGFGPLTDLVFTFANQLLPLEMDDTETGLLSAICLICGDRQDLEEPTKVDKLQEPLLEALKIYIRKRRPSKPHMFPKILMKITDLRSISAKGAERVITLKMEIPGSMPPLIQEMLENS
Experimental: as §1, §2, §3, §4

cerebellar neurons = assay: Neurite outgrowth assay, cerebellar neurons in the presence of myelin/MAG; assay type: cell-based, rat; conditions: cerebellar neurons, in the presence of MAG/myelin, with CD2019
Experimental: Cerebellar neurons isolated from post-natal day 3 rat pups were cultured over monolayers of parental 3T3 cells in control media, or media supplemented with a recombinant MAG-Fc chimera (R&D Systems) used at a final concentration of 20 μg/mL MAG-Fc. The monolayers were established for 24 hours prior to addition of the neurons and the co-cultures were maintained for approximately 21 hours. Following careful fixation with 4% paraformaldehyde, the neurons were immuno-stained with a GAP-43 antibody (from Graham Wilkin, Imperial College), dilution of 1:500, and the mean length of the longest neurite per cell was measured for approximately 120-150 neurons as previously described (see, e.g., Williams et al., 2005). DRG and cortical explants were obtained from adult rats, they were cultured in cellogen as previously described (see, e.g., Corcoran and Maden, 1999). Three explants per treatment were used. Neurite outgrowth was assessed 3 days later by immunohistochemistry with NF200 (Sigma, dilution of 1:200). The average lengths of the neurites were measured using image pro plus software. Media consisted of DMEM-F12 (Invitrogen) containing N2 (Invitrogen) supplemented with glucose (33 mM) and glutamine (2 mM).

| SMILES | RARγ/RARβ ratio (RARγ [1]) | RARβ relative EC30 (RARβ [2]) | RARα/RARβ ratio (RARα [3]) | RARα relative EC30 (RARα [4]) | RARα/RARβ ratio (RARα [5]) | RARγ relative EC30 (RARγ [6]) | pEC50 (RARα [7]) | RARα/RARβ ratio (RARα [7]) | pEC50 (RARγ [8]) | RARγ/RARβ ratio (RARγ [8]) | pEC50 (RARβ [9]) | Effect on RARβ agonist (CD2019) mediated neurite outgrowth (cerebellar neurons) |
| --- | --- | --- | --- | --- | --- | --- | --- | --- | --- | --- | --- | --- |
| Cc1ccc(C)c2oc(-c3ccc(-c4ccc(C(=O)O)cc4)[nH]3)cc12 [1b] | 9.60 | 25 ± 12 | 0.0029 | 0.37 ± 0.02 | 0.148 | 240 ± 30 |  |  |  |  |  |  |
| O=C(O)c1ccc(-c2ccc(-c3cc4c(Cl)ccc(Cl)c4o3)[nH]2)cc1 [1c] | 7.45 | 110 ± 30 | 0.0022 | 0.70 ± 0.15 | 0.006 | 820 ± 290 |  |  |  |  |  |  |
| O=C(O)c1ccc(-c2ccc(-c3cc4c(F)ccc(F)c4o3)[nH]2)cc1 [1e] | 8.33 | 210 ± 40 |  | 0.80 ± 0.17 | 0.0038 | 1750 ± 750 |  |  |  |  |  |  |
| O=C(O)c1ccc(-c2ccc(-c3cc4c(C(F)(F)F)ccc(F)c4o3)[nH]2)cc1 [1f] | 12.9 | 8.5 ± 0.4 | 0.0038 | 0.29 ± 0.04 | 0.034 | 110 ± 20 |  |  |  |  |  |  |
| Cc1ccc(C)c2sc(-c3ccc(-c4ccc(C(=O)O)cc4)[nH]3)cc12 [1j] | 6.46 | 130 ± 60 |  | 1.3 ± 0.6 | 0.010 | 840 ± 360 |  |  |  |  |  |  |
| Cc1ccc(C)c2oc(-c3noc(-c4ccc(C(=O)O)cc4Cl)n3)cc12 [BHBA-031, 3-Chloro-4-(3-(4,7-dimethylbenzofuran-2-yl)-1,2,4-oxadiazol-5-yl)benzoic acid] |  |  |  |  |  |  | 6.82 | 8.8 | 7.38 | 2.5 | 7.77 |  |
| Cc1cc(-c2nc(-c3cc4c(C)ccc(C)c4o3)no2)ccc1C(=O)O [BHBA-032, 4-(3-(4,7-Dimethylbenzofuran-2-yl)-1,2,4-oxadiazol-5-yl)-2-methylbenzoic acid] |  |  |  |  |  |  | 6.82 | 18.5 | 7.66 | 2.7 | 8.09 |  |
| Cc1ccc(C)c2oc(-c3noc(-c4ccc(C(=O)O)c(F)c4)n3)cc12 [BHBA-033, 4-(3-(4,7-Dimethylbenzofuran-2-yl)-1,2,4-oxadiazol-5-yl)-2-fluorobenzoic acid] |  |  |  |  |  |  | 7.35 | 3.5 | 7.64 | 1.8 | 7.89 |  |
| Cc1ccc(C)c2oc(-c3nnc(-c4ccc(C(=O)O)cc4)o3)cc12 [BHBA-034, 4-(5-(4,7-Dimethylbenzofuran-2-yl)-1,3,4-oxadiazol-2-yl)benzoic acid] |  |  |  |  |  |  | 7.04 | 4.6 | 7.24 | 2.9 | 7.70 |  |
| Cc1cc(C(=O)O)ccc1-c1nnc(-c2cc3c(C)ccc(C)c3o2)o1 [BHBA-035, 4-(5-(4,7-Dimethylbenzofuran-2-yl)-1,3,4-oxadiazol-2-yl)-3-methylbenzoic acid] |  |  |  |  |  |  | 7.04 | 1.3 | 7.08 | 1.2 | 7.17 |  |
| Cc1ccc(C)c2oc(-c3nnc(-c4ccc(C(=O)O)cc4Cl)o3)cc12 [BHBA-036, 3-Chloro-4-(5-(4,7-dimethylbenzofuran-2-yl)-1,3,4-oxadiazol-2-yl)benzoic acid] |  |  |  |  |  |  | 6.65 | 8 | 7.24 | 2.1 | 7.55 |  |
| Cc1ccc(C)c2oc(-c3nnc(-c4ccc(C(=O)O)c(F)c4)o3)cc12 [BHBA-037, 4-(5-(4,7-Dimethylbenzofuran-2-yl)-1,3,4-oxadiazol-2-yl)-2-fluorobenzoic acid] |  |  |  |  |  |  | 7.04 | 2 | 7.22 | 1.3 | 7.35 |  |
| Cc1ccc(C)c2oc(-c3nc(-c4ccc(C(=O)O)cc4)ns3)cc12 [BHBA-038, 4-(5-(4,7-Dimethylbenzofuran-2-yl)-1,2,4-thiadiazol-3-yl)benzoic acid] |  |  |  |  |  |  | 7.72 | 3.7 | 8.21 | 1.2 | 8.29 |  |
| Cc1ccc(C)c2oc(-c3nc(-c4ccc(C(=O)O)cc4Cl)ns3)cc12 [BHBA-039, 3-Chloro-4-(5-(4,7-dimethylbenzofuran-2-yl)-1,2,4-thiadiazol-3-yl)benzoic acid] |  |  |  |  |  |  | 7.19 |  | 7.89 |  | 8.44 |  |
| Cc1cc(-c2nsc(-c3cc4c(C)ccc(C)c4o3)n2)ccc1C(=O)O [BHBA-040, 4-(5-(4,7-Dimethylbenzofuran-2-yl)-1,2,4-thiadiazol-3-yl)-2-methylbenzoic acid] |  |  |  |  |  |  | 7.14 |  | 6.89 |  | 7.96 |  |
| Cc1ccc(C)c2oc(-c3nc(-c4ccc(C(=O)O)c(F)c4)ns3)cc12 [BHBA-041, 4-(5-(4,7-Dimethylbenzofuran-2-yl)-1,2,4-thiadiazol-3-yl)-2-fluorobenzoic acid] |  |  |  |  |  |  | 7.70 | 4.6 | 8.33 | 1.0 | 8.37 |  |
| Cc1ccc(C)c2oc(-c3nsc(-c4ccc(C(=O)O)cc4)n3)cc12 [BHBA-042, 4-(3-(4,7-Dimethylbenzofuran-2-yl)-1,2,4-thiadiazol-5-yl)benzoic acid] |  |  |  |  |  |  | 8.03 | 3 | 8.64 | 0.74 | 8.51 |  |
| Cc1cc(-c2nc(-c3cc4c(C)ccc(C)c4o3)ns2)ccc1C(=O)O [BHBA-043, 4-(3-(4,7-Dimethylbenzofuran-2-yl)-1,2,4-thiadiazol-5-yl)-2-methylbenzoic acid] |  |  |  |  |  |  | 7.36 |  | 7.60 |  | 8.28 |  |
| Cc1ccc(C)c2oc(-c3nsc(-c4ccc(C(=O)O)c(F)c4)n3)cc12 [BHBA-044, 4-(3-(4,7-Dimethylbenzofuran-2-yl)-1,2,4-thiadiazol-5-yl)-2-fluorobenzoic acid] |  |  |  |  |  |  | 7.59 | 13 | 8.47 | 1.7 | 8.70 |  |
| Cc1c(Cl)cc(C)c2oc(-c3nc(-c4ccc(C(=O)O)cc4)no3)cc12 [BHBA-045, 4-(5-(5-Chloro-4,7-dimethylbenzofuran-2-yl)-1,2,4-oxadiazol-3-yl)benzoic acid] |  |  |  |  |  |  | 7.04 |  | 7.40 |  | 8.40 |  |
| CCCCCCOC(=O)[C@]1(O)C[C@@H]2O[C@@]1(C)n1c3ccccc3c3c4c(c5c6ccccc6n2c5c31)C(=O)NC4 [KT5720] |  |  |  |  |  |  |  |  |  |  |  | little or no effect; also recorded: does not affect |
| O=c1cc(N2CCOCC2)oc2c(-c3ccccc3)cccc12 [LY295002] |  |  |  |  |  |  |  |  |  |  |  | neurite outgrowth was severely impeded |
